How the values were obtained:
[1] = tested on: myelin basic protein (MBP); assay: Induction of myelin basic protein (MBP) production in MO3-13 cells, slot blot with anti-MBP antibody; format: cell-based, human; settings: with and without cuprizone; for relative MBP binding compared with vehicle control: MO3-13 cells, p<0.0001, FIG. 2; for relative MBP binding (anti-MBP antibody): MO3-13 whole cell extracts
Protocol: Whole cell extracts of MO3-13 cells were prepared using 6 M urea. An aliquot of 100 μL was removed and diluted with an equal volume of 6 M urea. A 5 μL aliquot was removed and quantitated for protein levels. Total protein concentrations were determined using the BioRad protein assay method at 595 nm. Total protein in the whole cell extracts was determined and a ratio of recovered protein was used to calculate the relative amount of MBP in the whole cell extracts. Whole cell extracts were diluted to 0.1 mg/mL. Extracts containing 2.5 μg of protein were applied onto nitrocellulose membrane in a slot blotter using a vacuum method to draw the sample onto the membrane. The non-protein sites on the membrane were blocked with 2% ECL blocking reagent diluted in PBS-Tween20. Primary anti-Bovine MBP was diluted in the same block solution at 300×. The primary antibody was incubated one hour at room temperature with gentle shaking. The blot was developed using enhanced ECL (GE Healthcare) method. Image of bound antibody were captured using Image Lab software driving a Bio-Rad ChemiDoc XRS+ image capture system. The data was graphically represented using Graph Pad Prism software.

[2] = Cuprizone model in mice: body weight, deaths and toxicity; format: in vivo
Protocol: (§1) The ability of compound A1 to effect the demyelination process was evaluated in a cuprizone model of demyelination in mice. Thirty-six male C57/B6 mice aged 7-8 weeks were acclimated for 1 week prior to study commencement and housed 2 mice per cage. Mice in Group 1 received control chow without cuprizone, and all other mice were fed mouse diet containing 0.2% cuprizone for 5 weeks. Food was changed every other day, body and food weights were obtained daily. All cuprizone and control food was stored in vacuum containers and stored frozen until use.
(§2) Dosing solutions were prepared fresh on each day of dosing. Compound A1 was first dissolved in DMSO in a volume of 10% of the final volume, followed by addition of solutol HS-15 in a volume of 10% of the final volume and a solution of 10% hydroxypropyl-β-cyclodextrin in a volume of 80% of the final volume. Unless otherwise noted, all test articles were administered in a volume of 0.1 mL/10 g body weight.
(§3) During this process, mice received either vehicle or compound A1 at 50 mg/kg or 100 mg/kg via intraperitoneal injection daily. At the end of 5 weeks, the mice were sacrificed and the brain histology of each group compared to controls that had not received cuprizone. Statistical differences between treatment groups were determined using Mann-Whitney Rank Sum or ANOVA tests with a critical value of 0.05.
All animals were weighed every day in order to assess possible differences in animal weight among treatment groups as an indication of possible toxicity resulting from the treatments. Animals with a weight loss of more than 20% of their starting weight were euthanized. Mice with weight loss of more than 15% of their starting weight were not treated again until weight loss recovered to less than 5% of their starting weight. […] One animal in the cuprizone/vehicle group was also euthanized on Day 20 due to poor condition and weight loss. All remaining mice survived until the end of the study.

[3] = tested on: C57/B6 mice; assay: Cuprizone model of demyelination in mice: brain myelination scores; format: in vivo
Protocol: as §1, §2, §3
(§4) Evaluation of the myelin content of the brains was focused on three areas—the rostral corpus callosum, the dorsal corpus callosum and the cerebellum. The extent of demyelination in both sagittal sections was determined by a board certified veterinary pathologist blinded to animal treatment. Percent demyelination was scored as follows: demyelination ranging from 0 to 10% of the total anatomical structure was scored as 0; demyelination ranging from 11 to 30% of the total anatomical structure was scored as 1; demyelination ranging from 31 to 60% of the total anatomical structure was scored as 2; demyelination ranging from 61 to 90% of the total anatomical structure was scored as 3; and demyelination ranging from 91 to 100% of the total anatomical structure was scored as 4. The extent of MBP staining intensity was based on a 1-4 scale, where 4 was the highest level of staining seen (100%).

[4] = tested on: myelin basic protein (MBP); assay: Cuprizone model of demyelination in mice: MBP immunohistochemistry staining score; format: in vivo
Protocol: as §1, §2, §3, §4
In addition, immunohistochemistry was performed for myelin basic protein (MBP), and slides were analyzed for the intensity of MBP staining in the same regions. The mean rostral corpus callosum MBP staining score for the control groups was 4. In the vehicle treated group receiving cuprizone chow, the mean rostral corpus callosum m MBP staining score was 2.9. In the group receiving cuprizone chow and compound A1 at 50 mg/kg, the mean rostral corpus callosum MBP staining score was 3.2. Additional analysis of the rostral corpus callosum MBP staining was conducted using an ANOVA test.

SMILES	relative MBP binding compared with vehicle control [1]	relative MBP binding (anti-MBP antibody) [1]	average loss of starting weight during the study ([2]; 50 mg/kg IP QD, cuprizone food, 5 weeks)	toxicity ([2]; 50 mg/kg daily, cuprizone treatment)	mice that suddenly started to lose weight and die ([2]; 100 mg/kg IP QD, cuprizone food, between Days 20 and 24, despite discontinuation of dosing)	mean cerebellar myelination score ([3]; 50 mg/kg IP QD, cuprizone chow 5 weeks, not significant)	mean rostral corpus callosum myelination score ([3]; 50 mg/kg IP QD, cuprizone chow 5 weeks, not significant vs vehicle)	mean caudal corpus callosum myelination score ([3]; 50 mg/kg IP QD, cuprizone chow 5 weeks, p=0.0012 vs vehicle)	demyelination in the rostral corpus callosum vs vehicle treated group ([3]; cuprizone mice)	demyelination in the dorsal corpus callosum vs mice receiving vehicle ([3]; cuprizone mice, p=0.0012)	mean cerebellum MBP staining score ([4]; 50 mg/kg IP QD, cuprizone chow 5 weeks, 1-4 scale, 4 highest, not significant)	mean rostral corpus callosum MBP staining score ([4]; 50 mg/kg IP QD, cuprizone chow 5 weeks, 1-4 scale, 4 highest, not significant vs vehicle)	mean caudal corpus callosum MBP staining score ([4]; 50 mg/kg IP QD, cuprizone chow 5 weeks, 1-4 scale, 4 highest, p=0.0064 vs vehicle)	MBP expression in the rostral corpus callosum vs vehicle treated group ([4]; cuprizone mice)	MBP expression in the dorsal corpus callosum vs mice receiving vehicle ([4]; cuprizone mice, p=0.0064)
Cc1cc(C(F)(F)F)cc(=S)[nH]1 [A3, 6-methyl-4-trifluoromethylpyridine-2(1H)-thione]	significantly increased above vehicle control	elevated relative MBP binding	–	–	–	–	–	–	–	–	–	–	–	–	–
Cc1cc(C2CCCCC2)[nH]c(=S)c1 [compound A1, 6-cyclohexyl-4-methylpyridine-2(1H)-thione]	significantly increased above vehicle control	elevated relative MBP binding	10.6%	no evidence of toxicity beyond that seen in the vehicle group	nine often mice	3.2	2.1	2.1	no statistically significant differences	significantly less demyelination	3.8	3.2	3.1	no statistically significant differences	significantly less demyelination
Cc1cc(CC(C)CC(C)(C)C)[nH]c(=S)c1 (stereo not drawn) [compound A2, 4-methyl-6-(2,4,4-trimethylpentyl)pyridine-2(1H)-thione]	–	elevated relative MBP binding	–	–	–	–	–	–	–	–	–	–	–	–	–

Reference: patent publication US10654805B2, “Pyridinethiones, pharmaceutical compositions thereof, and their therapeutic use for treating a proliferative, inflammatory, neurodegenerative, or immune-mediated disease” (BioTheryX, Inc., priority 2016, dated 2020)
